Earlier results as cited in patent publication US20220160693A1, “PHARMACEUTICAL COMPOSITION OF PROLYL HYDROXYLASE INHIBITOR AND PREPARATION METHOD THEREFOR” (Jiangsu Hengrui Medicine Co., Ltd., priority 2019, published 2022).

System: prolyl hydroxylase

**Q.** For O=C(O)CNC(=O)c1ncc(C#CCOc2ccc(Cl)cc2)cc1O [compound of formula (I), 2-(3-hydroxy-5-(3-p-chlorophenoxypropyn-1-yl))picolinamido acetic acid], which “Inhibition effect on prolyl hydroxylase (in words)” value is on record?
**A.** excellent inhibition effect
